Among the data in US9624206B2, “Antibacterial 1H-indazole and 1H-indole derivatives” (priority 2013, dated 2017) are MIC values, retold here.

Each structure is given as a SMILES string. Values after ≈ are worked out from the molar mass of the structure shown.

Experiment in all cases: Bacterial growth minimal inhibitory concentration (microdilution, CLSI M7-A7)
Holding throughout (type): cell-based

Assay [1] concerns P. aeruginosa ATCC27853. As to conditions: Pseudomonas aeruginosa, ATCC27853; quinolone-sensitive strain; cation-adjusted Mueller-Hinton Broth. On the procedure: (§1) Minimal Inhibitory Concentrations (MICs; mg/L) were determined in cation-adjusted Mueller-Hinton Broth by a microdilution method following the description given in “Methods for Dilution Antimicrobial Susceptibility Tests for Bacteria that Grow Aerobically”, Approved standard, 7th ed., Clinical and Laboratory Standards Institute (CLSI) Document M7-A7, Wayne, Pa., USA (2006).
(§2) All Example compounds were tested against several Gram-positive and Gram-negative bacteria. […] K. pneumoniae A-651 and Acinetobacter baumannii T6474 are multiply-resistant strains (in particular quinolone-resistant), while E. coli ATCC25922 and P. aeruginosa ATCC27853 are quinolone-sensitive strains.

The test system of assay [2] is Acinetobacter baumannii T6474. Particulars: Acinetobacter baumannii, T6474; multiply-resistant strain (in particular quinolone-resistant); cation-adjusted Mueller-Hinton Broth. On the procedure: as §1, §2
For assay [3], the system named is K. pneumoniae A-651. Particulars: Klebsiella pneumoniae, A651; multiply-resistant strain (in particular quinolone-resistant); cation-adjusted Mueller-Hinton Broth. Here is the method:
as §1, §2

Assay [4] relates to E. coli ATCC25922. As to conditions: Escherichia coli, ATCC25922; quinolone-sensitive strain; cation-adjusted Mueller-Hinton Broth. On the procedure:
as §1, §2

Consider `CC(C)(O)c1ccc(C#Cc2ccc3c(cnn3CC[C@](C)(C(=O)NO)S(C)(=O)=O)c2)cc1` [Example 8, (R)—N-hydroxy-4-(5-((4-(2-hydroxypropan-2-yl)phenyl)ethynyl)-1H-indazol-1-yl)-2-methyl-2-(methylsulfonyl)butanamide], for which the MIC in assay [1] stood at 2 µg/mL (≈ 4.26 µM); in assay [2], 0.25 µg/mL (≈ 0.532 µM); in assay [3], 0.25 µg/mL (≈ 0.532 µM); in assay [4] it was 0.125 µg/mL (≈ 0.266 µM).
On to `C[C@@](CCn1ccc2cc(C#Cc3ccc(CO)cc3)ccc21)(C(=O)NO)S(C)(=O)=O` [Example 9, (R)—N-hydroxy-4-(5-((4-(hydroxymethyl)phenyl)ethynyl)-1H-indol-1-yl)-2-methyl-2-(methylsulfonyl)butanamide], for which the MIC in assay [1] was 1 µg/mL (≈ 2.27 µM); in assay [2], 0.125 µg/mL (≈ 0.284 µM); in assay [3] it was 0.125 µg/mL (≈ 0.284 µM); in assay [4], no more than 0.063 µg/mL.
Take `C[C@@](CCn1ccc2cc(C#Cc3ccc(C4(O)COC4)cc3)ccc21)(C(=O)NO)S(C)(=O)=O` [Example 10, (R)—N-hydroxy-4-(5-((4-(3-hydroxyoxetan-3-yl)phenyl)ethynyl)-1H-indol-1-yl)-2-methyl-2-(methylsulfonyl)butanamide]: the MIC in assay [1] is 1 µg/mL (≈ 2.07 µM); in assay [2], 0.125 µg/mL (≈ 0.259 µM); in assay [3], 0.25 µg/mL (≈ 0.518 µM); in assay [4] it was 0.125 µg/mL (≈ 0.259 µM).
Consider `C[C@@](CCn1ccc2cc(C#CC#CC3(O)COC3)ccc21)(C(=O)NO)S(C)(=O)=O` [Example 11, (R)—N-hydroxy-4-(5-((3-hydroxyoxetan-3-yl)buta-1,3-diyn-1-yl)-1H-indol-1-yl)-2-methyl-2-(methylsulfonyl)butanamide], for which the MIC in assay [1] amounted to 1 µg/mL (≈ 2.32 µM); in assay [2], 16 µg/mL (≈ 37.2 µM); in assay [3], 0.25 µg/mL (≈ 0.581 µM); in assay [4] it was 0.5 µg/mL (≈ 1.16 µM).
As to `C[C@@](CCn1ncc2cc(C#Cc3ccc(C4(O)COC4)cc3)ccc21)(C(=O)NO)S(C)(=O)=O` [Example 12, (R)—N-hydroxy-4-(5-((4-(3-hydroxyoxetan-3-yl)phenyl)ethynyl)-1H-indazol-1-yl)-2-methyl-2-(methylsulfonyl)butanamide], the MIC in assay [1] worked out at 1 µg/mL (≈ 2.07 µM); in assay [2] it was 0.25 µg/mL (≈ 0.517 µM); in assay [3], 0.25 µg/mL (≈ 0.517 µM); in assay [4] it was 0.25 µg/mL (≈ 0.517 µM).
As to `C[C@@](CCn1ncc2cc(C#CC#CC3(O)CSC3)ccc21)(C(=O)NO)S(C)(=O)=O` [Example 13, (R)—N-hydroxy-4-(5-((3-hydroxythietan-3-yl)buta-1,3-diyn-1-yl)-1H-indazol-1-yl)-2-methyl-2-(methylsulfonyl)butanamide], the MIC in assay [1] was determined as 1 µg/mL (≈ 2.23 µM); in assay [2] it was 8 µg/mL (≈ 17.9 µM); in assay [3], 0.25 µg/mL (≈ 0.559 µM); in assay [4] it was 0.25 µg/mL (≈ 0.559 µM).
For `C[C@@](CCn1ncc2cc(C#Cc3ccc(CCO)cc3)ccc21)(C(=O)NO)S(C)(=O)=O` [Example 14, (R)—N-hydroxy-4-(5-((4-(2-hydroxyethyl)phenyl)ethynyl)-1H-indazol-1-yl)-2-methyl-2-(methylsulfonyl)butanamide], the MIC in assay [1] is 1 µg/mL (≈ 2.2 µM); in assay [2], 0.125 µg/mL (≈ 0.274 µM); in assay [3], 0.25 µg/mL (≈ 0.549 µM); in assay [4] it was no more than 0.063 µg/mL.
In the same order, the values of `C[C@@H](O)c1ccc(C#Cc2ccc3c(cnn3CC[C@](C)(C(=O)NO)S(C)(=O)=O)c2)cc1.Cl` [Example 16, (R)—N-hydroxy-4-(5-((4-((R)-1-hydroxyethyl)phenyl)ethynyl)-1H-indazol-1-yl)-2-methyl-2-(methylsulfonyl)butanamide hydrochloride] are 1 µg/mL, 0.25 µg/mL, 0.125 µg/mL and no more than 0.063 µg/mL.
In the same order, the values of `C[C@@](CCn1ccc2cc(C#CC#C[C@H]3C[C@@H]3CO)ccc21)(C(=O)NO)S(C)(=O)=O` [Example 17, (R)—N-hydroxy-4-(5-(((1S,2S)-2-(hydroxymethyl)cyclopropyl)buta-1,3-diyn-1-yl)-1H-indol-1-yl)-2-methyl-2-(methylsulfonyl)butanamide] are 0.5 µg/mL (≈ 1.17 µM), 16 µg/mL (≈ 37.3 µM), 0.125 µg/mL (≈ 0.292 µM) and no more than 0.063 µg/mL.
